# Experimental data taken from patent publication US20230053540A1, “TREATMENT OF LIVER INJURY” (Massachusetts Institute of Technology, priority 2019, published 2023).
# System: hepatocytes
# Assay: Seq-Well scRNA-Seq of hepatocytes after APAP overdose (signature scores, DEG vs untreated)
# Format: in vivo, mouse
# [1] = A48 (48 h post-APAP) vs other clusters, Wilcox
# [2] = A48 (APAP 48 h) vs untreated (UT) hepatocytes
smiles,measurement,setting,value
"CC(=O)Nc1ccc(O)cc1 [APAP, acetaminophen]",avg_logFC Ssr3,A24 vs untreated (UT),0.5218
same,avg_logFC Stard4,A24 vs untreated (UT),0.3515
same,avg_logFC Steap4,A24 vs untreated (UT),0.476
same,avg_logFC Tmed7,A24 vs untreated (UT),0.3868
same,avg_logFC Tmem30a,A24 vs untreated (UT),0.3328
same,avg_logFC Tmem205,A24 vs untreated (UT),−0.4721
same,avg_logFC Tram1,A24 vs untreated (UT),0.4111
same,avg_logFC Trp53inp1,A24 vs untreated (UT),0.368
same,avg_logFC Ubc,A24 vs untreated (UT),−0.3705
same,avg_logFC Ugt2a3,A24 vs untreated (UT),−0.3334
same,avg_logFC Ugt2b1,A24 vs untreated (UT),−0.2895
same,avg_logFC Ugt2b5,A24 vs untreated (UT),−0.5765
same,avg_logFC Ugt2b36,A24 vs untreated (UT),−0.3293
same,avg_logFC Uqcrq,A24 vs untreated (UT),−0.5959
same,avg_logFC Uso1,A24 vs untreated (UT),0.3881
same,avg_logFC Usp4,A24 vs untreated (UT),0.3247
same,avg_logFC Usp9x,A24 vs untreated (UT),0.4076
same,avg_logFC Zfp683,A24 vs untreated (UT),−0.4214
same,avg_logFC mmu-mir-6236,A24 vs untreated (UT),0.7875
same,avg_logFC mt-Atp6,A24 vs untreated (UT),−0.5737
same,avg_logFC mt-Co1,A24 vs untreated (UT),−1.433
same,avg_logFC mt-Co2,A24 vs untreated (UT),−1.397
same,avg_logFC mt-Co3,A24 vs untreated (UT),−1.167
same,avg_logFC mt-Cytb,A24 vs untreated (UT),−1.571
same,avg_logFC mt-Nd1,A24 vs untreated (UT),−1.42
same,avg_logFC mt-Nd2,A24 vs untreated (UT),−1.242
same,avg_logFC mt-Nd4,A24 vs untreated (UT),−1.957
same,avg_logFC mt-Nd5,A24 vs untreated (UT),−1.384
same,avg_logFC mt-Nd6,A24 vs untreated (UT),−0.4779
same,avg_logFC mt-Rnr1,A24 vs untreated (UT),−0.4562
same,avg_logFC mt-Rnr2,A24 vs untreated (UT),−0.7783
same,avg_logFC mt-Tm,A24 vs untreated (UT),0.2847
same,avg_logFC mt-Tq,A24 vs untreated (UT),0.2879
same,avg_logFC n-R5-8s1,A24 vs untreated (UT),1.253
same,avg_logFC Abcb4,[1],0.4425
same,avg_logFC Abcd2,[1],0.2813
same,avg_logFC Abhd14b,[1],0.4059
same,avg_logFC Acad11,[1],0.3851
same,avg_logFC Agt,[1],0.5795
same,avg_logFC Ahcy,[1],0.34
same,avg_logFC Ahsg,[1],0.3592
same,avg_logFC Aldh9a1,[1],0.3826
same,avg_logFC Aldob,[1],0.4375
same,avg_logFC Ambp,[1],0.286
same,avg_logFC Amy1,[1],0.4216
same,avg_logFC Angptl3,[1],0.6111
same,avg_logFC Apoa5,[1],0.4484
same,avg_logFC Apoc2,[1],0.8639
same,avg_logFC Apoc3,[1],0.407
same,avg_logFC Apoe,[1],0.5049
same,avg_logFC Apoh,[1],0.4628
same,avg_logFC Atp5b,[1],0.3281
same,avg_logFC Atp5h,[1],0.5978
same,avg_logFC Bfar,[1],0.308
same,avg_logFC Bnip3,[1],0.462
same,avg_logFC Cdo1,[1],0.3971
same,avg_logFC Cebpb,[1],0.3684
same,avg_logFC Ces1b,[1],0.4829
same,avg_logFC Ces1c,[1],0.5488
same,avg_logFC Chchd10,[1],0.7517
same,avg_logFC Cox5a,[1],0.4197
same,avg_logFC Cox8a,[1],0.552
same,avg_logFC Cp,[1],0.4274
same,avg_logFC Cyp4a10,[1],0.9326
same,avg_logFC Cyp4a14,[1],1.281
same,avg_logFC Dbp,[1],0.2896
same,avg_logFC Ddb1,[1],0.3544
same,avg_logFC Decr1,[1],0.5669
same,avg_logFC Decr2,[1],0.4129
same,avg_logFC Ech1,[1],0.418
same,avg_logFC Echs1,[1],0.4649
same,avg_logFC Ephx2,[1],0.3869
same,avg_logFC F2,[1],0.3952
same,avg_logFC F10,[1],0.3927
same,avg_logFC F12,[1],0.388
same,avg_logFC Fah,[1],0.3913
same,avg_logFC Fcgrt,[1],0.4084
same,avg_logFC Fkbp5,[1],0.2572
same,avg_logFC Fth1,[1],0.375
same,avg_logFC Gabarap,[1],0.4014
same,avg_logFC Gc,[1],0.2979
same,avg_logFC Gltscr2,[1],0.3432
same,avg_logFC Gm6484,[1],0.4108
same,avg_logFC Gm23935,[1],0.4738
same,avg_logFC Grn,[1],0.431
same,avg_logFC Gstt3,[1],0.3384
same,avg_logFC Gys2,[1],0.4231
same,avg_logFC Hdac11,[1],0.3557
same,avg_logFC Herpud1,[1],0.6044
same,avg_logFC Hmgcl,[1],0.5501
same,avg_logFC Hmgcs2,[1],0.7687
same,avg_logFC Hpx,[1],0.3851
same,avg_logFC Hrg,[1],0.5316
same,avg_logFC Hsd17b13,[1],0.6221
same,avg_logFC Hspa8,[1],0.4107
same,avg_logFC Khk,[1],0.5202
same,avg_logFC Lcat,[1],0.5053
same,avg_logFC Lims2,[1],0.3761
same,avg_logFC Lpin1,[1],0.515
same,avg_logFC Mat1a,[1],0.7753
same,avg_logFC Mfsd2a,[1],0.6614
same,avg_logFC Mlycd,[1],0.4378
same,avg_logFC Ndrg2,[1],0.3482
same,avg_logFC Nr1i3,[1],0.4759
same,avg_logFC Oaf,[1],0.5021
same,avg_logFC P4hb,[1],0.2981
same,avg_logFC Pabpc1,[1],0.4782
same,avg_logFC Plin5,[1],0.3985
same,avg_logFC Pnpla2,[1],0.3465
same,avg_logFC Prodh2,[1],0.5055
same,avg_logFC Rbp4,[1],0.3942
same,avg_logFC Rdh7,[1],0.4684
same,avg_logFC Reep6,[1],0.6233
same,avg_logFC Retsat,[1],0.7096
same,avg_logFC Rgs16,[1],0.4545
same,avg_logFC Rpl38,[1],0.3322
same,avg_logFC Scand1,[1],0.2707
same,avg_logFC Serpina3m,[1],0.4034
same,avg_logFC Serpina1d,[1],0.3053
same,avg_logFC Serping1,[1],0.5777
same,avg_logFC Slc25a10,[1],0.4313
same,avg_logFC Slc25a20,[1],0.3875
same,avg_logFC Slc25a47,[1],0.6175
same,avg_logFC Slc27a5,[1],0.4062
same,avg_logFC Slc37a4,[1],0.4461
same,avg_logFC Slco1a4,[1],0.5091
same,avg_logFC Snord118,[1],0.4771
same,avg_logFC St3gal5,[1],0.5549
same,avg_logFC Sult1a1,[1],0.4827
same,avg_logFC Syvn1,[1],0.3041
same,avg_logFC Tcea3,[1],0.3938
same,avg_logFC Tef,[1],0.3394
same,avg_logFC Tmbim4,[1],0.3693
same,avg_logFC Tmbim6,[1],0.3713
same,avg_logFC Ttc36,[1],0.5638
same,avg_logFC Ttpa,[1],0.4431
same,avg_logFC Ttr,[1],0.4225
same,avg_logFC Ugt2b5,[1],0.4388
same,avg_logFC Vnn3,[1],0.3008
same,avg_logFC Vtn,[1],0.5228
same,avg_logFC Yipf3,[1],0.2785
same,Gstm3 pct.1,A48 (APAP 48 h) hepatocytes,0.279
same,Pim3 pct.1,A48 (APAP 48 h) hepatocytes,0.845
same,Gstm3 avg_logFC,[2],−0.6277
same,Pim3 avg_logFC,[2],0.2884
same,avg_logFC Acsl1,A48A96 vs untreated (UT),0.2563
same,avg_logFC Aldh3a2,A48A96 vs untreated (UT),0.3079
same,avg_logFC Atp1a1,A48A96 vs untreated (UT),0.2628
same,avg_logFC Atp5d,A48A96 vs untreated (UT),0.2501
same,avg_logFC C6,A48A96 vs untreated (UT),−0.267
same,avg_logFC Ces1e,A48A96 vs untreated (UT),0.2656
same,avg_logFC Ctsd,A48A96 vs untreated (UT),0.2579
same,avg_logFC Cyp4a12a,A48A96 vs untreated (UT),−0.2771
same,avg_logFC Ech1,A48A96 vs untreated (UT),0.2505
same,avg_logFC F5,A48A96 vs untreated (UT),0.3006
same,avg_logFC F9,A48A96 vs untreated (UT),0.2568
same,avg_logFC F12,A48A96 vs untreated (UT),0.2567
same,avg_logFC Fcgrt,A48A96 vs untreated (UT),0.2585
same,avg_logFC Fn1,A48A96 vs untreated (UT),0.2925
same,avg_logFC Ftl1,A48A96 vs untreated (UT),−0.2988
same,avg_logFC Gabarapl1,A48A96 vs untreated (UT),0.2607
same,avg_logFC Gclm,A48A96 vs untreated (UT),0.2588
same,avg_logFC Glul,A48A96 vs untreated (UT),0.3795
same,avg_logFC Gm4076,A48A96 vs untreated (UT),−0.3083
same,avg_logFC Gm20594,A48A96 vs untreated (UT),−0.3566
same,avg_logFC Gsta2,A48A96 vs untreated (UT),0.2522
same,avg_logFC Hadha,A48A96 vs untreated (UT),0.2509
same,avg_logFC Hal,A48A96 vs untreated (UT),0.2801
same,avg_logFC Hgfac,A48A96 vs untreated (UT),0.2522
same,avg_logFC Hsd17b4,A48A96 vs untreated (UT),0.2532
same,avg_logFC Ifitm3,A48A96 vs untreated (UT),−0.2543
same,avg_logFC Inmt,A48A96 vs untreated (UT),−0.2532
same,avg_logFC Lpgat1,A48A96 vs untreated (UT),0.2576
same,avg_logFC Lpin1,A48A96 vs untreated (UT),0.2775
same,avg_logFC Ndufb2,A48A96 vs untreated (UT),0.2516
same,avg_logFC Park7,A48A96 vs untreated (UT),0.2515
same,avg_logFC Pck1,A48A96 vs untreated (UT),0.2719
same,avg_logFC Pipox,A48A96 vs untreated (UT),0.2725
same,avg_logFC Ppp2r5a,A48A96 vs untreated (UT),0.2509
same,avg_logFC Ptms,A48A96 vs untreated (UT),0.2678
same,avg_logFC Rarres1,A48A96 vs untreated (UT),−0.2919
same,avg_logFC Rpl32,A48A96 vs untreated (UT),−0.2847
same,avg_logFC Rpl41,A48A96 vs untreated (UT),−0.295
same,avg_logFC Sardh,A48A96 vs untreated (UT),0.2692
same,avg_logFC Sdhd,A48A96 vs untreated (UT),0.3208
same,avg_logFC Sds,A48A96 vs untreated (UT),0.2973
same,avg_logFC Sec61a1,A48A96 vs untreated (UT),0.2637
same,avg_logFC Serpina12,A48A96 vs untreated (UT),−0.3247
same,avg_logFC Sfxn1,A48A96 vs untreated (UT),0.3049
same,avg_logFC Slc2a2,A48A96 vs untreated (UT),0.2723
same,avg_logFC Slc37a4,A48A96 vs untreated (UT),0.2683
same,avg_logFC Tmem106b,A48A96 vs untreated (UT),0.2704
same,avg_logFC Ubb,A48A96 vs untreated (UT),−0.2644
same,avg_logFC Ubxn4,A48A96 vs untreated (UT),0.2503
same,avg_logFC Upb1,A48A96 vs untreated (UT),0.2504
same,avg_logFC Usmg5,A48A96 vs untreated (UT),0.2787
same,avg_logFC mmu-mir-6236,A48A96 vs untreated (UT),−0.4297
same,avg_logFC mt-Atp6,A48A96 vs untreated (UT),−0.3234
same,C6 A48logFC,A48 vs UT,−0.267
same,Glul A48logFC,A48 vs UT,0.3795
same,Gm20594 A48logFC,A48 vs UT,−0.3566
same,Rps8 A48logFC,A48 vs UT,−0.2746
